Test results taken from article PMC3602154 (PLoS ONE, 2013).
Where two headings read alike, the source gives them in different places.

What was measured:
KOR = KOR (Homo sapiens, UniProt P41145); test: PDSP radioligand binding, opioid receptor KOR
From the text: (§1) [17] and http://pdsp.med.unc.edu/UNC-CH%20Protocol%20Book.pdf.

5-HT1A = target: T1, 5-HT1A (Homo sapiens, UniProt P08908); test: PDSP radioligand binding, serotonin receptor 5-HT1A
T1 sequence (P08908 1-422): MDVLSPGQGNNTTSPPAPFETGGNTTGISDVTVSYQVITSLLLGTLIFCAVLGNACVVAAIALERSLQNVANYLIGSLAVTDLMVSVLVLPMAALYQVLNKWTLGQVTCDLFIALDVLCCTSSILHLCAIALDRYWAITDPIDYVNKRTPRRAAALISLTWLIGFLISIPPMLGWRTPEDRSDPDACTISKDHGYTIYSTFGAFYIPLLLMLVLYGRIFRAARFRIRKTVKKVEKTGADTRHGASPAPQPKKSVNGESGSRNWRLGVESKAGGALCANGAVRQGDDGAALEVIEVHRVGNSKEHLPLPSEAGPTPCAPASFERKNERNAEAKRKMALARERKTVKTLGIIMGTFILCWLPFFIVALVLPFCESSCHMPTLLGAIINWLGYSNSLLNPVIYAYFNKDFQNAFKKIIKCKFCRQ
From the text: as §1

D1 = D1 (Homo sapiens, UniProt P21728); test: PDSP radioligand binding, dopamine receptor D1
From the text: as §1

GABAB = GABAB (Homo sapiens, UniProt Q9UBS5); test: PDSP radioligand binding, GABA-B
From the text: as §1

A4B2 = A4B2 (Rattus norvegicus, UniProt P09483+P12390); test: PDSP radioligand binding, nicotinic receptor α4 ß2
From the text: as §1

5-HT2B = 5-HT2B (Homo sapiens, UniProt P41595); test: PDSP radioligand binding, serotonin receptor 5-HT2B
From the text: as §1

5-HT2A = 5-HT2A (Homo sapiens, UniProt P28223); test: PDSP radioligand binding, serotonin receptor 5-HT2A
From the text: as §1

Alpha1B = target: T2, Alpha1B (Homo sapiens, UniProt P35368); test: PDSP radioligand binding, adrenoceptor α1B
T2 sequence (P35368 1-520): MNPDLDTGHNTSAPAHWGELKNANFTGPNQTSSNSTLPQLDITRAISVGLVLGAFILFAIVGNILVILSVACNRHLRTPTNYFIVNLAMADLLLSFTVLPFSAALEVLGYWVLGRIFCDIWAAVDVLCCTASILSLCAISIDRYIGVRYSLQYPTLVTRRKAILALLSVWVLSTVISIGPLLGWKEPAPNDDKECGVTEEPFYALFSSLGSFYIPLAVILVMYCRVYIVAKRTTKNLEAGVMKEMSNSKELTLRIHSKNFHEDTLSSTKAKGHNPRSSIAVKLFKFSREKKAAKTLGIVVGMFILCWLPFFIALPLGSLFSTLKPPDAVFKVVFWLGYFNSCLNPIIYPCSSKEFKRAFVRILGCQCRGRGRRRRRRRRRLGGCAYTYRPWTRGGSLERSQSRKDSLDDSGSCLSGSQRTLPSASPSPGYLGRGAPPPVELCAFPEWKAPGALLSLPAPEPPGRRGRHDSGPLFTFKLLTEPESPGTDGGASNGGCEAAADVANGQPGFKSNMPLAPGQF
From the text: as §1

M3 = M3 (Homo sapiens, UniProt P20309); test: PDSP radioligand binding, muscarinic receptor M3
From the text: as §1

D2 = D2 (Homo sapiens, UniProt P14416); test: PDSP radioligand binding, dopamine receptor D2
From the text: as §1

MOR = MOR (Homo sapiens, UniProt P35372); test: PDSP radioligand binding, opioid receptor MOR
From the text: as §1

A3B2 = A3B2 (Rattus norvegicus, UniProt P04757+P12390); test: PDSP radioligand binding, nicotinic receptor α3 ß2
From the text: as §1

[1] = target: NMDA Receptor (MK-801 binding site); test: PDSP radioligand binding, NMDA receptor
From the text: as §1

Alpha2C = target: T3, Alpha2C (Homo sapiens, UniProt P18825); test: PDSP radioligand binding, adrenoceptor α2C
T3 sequence (P18825 1-462): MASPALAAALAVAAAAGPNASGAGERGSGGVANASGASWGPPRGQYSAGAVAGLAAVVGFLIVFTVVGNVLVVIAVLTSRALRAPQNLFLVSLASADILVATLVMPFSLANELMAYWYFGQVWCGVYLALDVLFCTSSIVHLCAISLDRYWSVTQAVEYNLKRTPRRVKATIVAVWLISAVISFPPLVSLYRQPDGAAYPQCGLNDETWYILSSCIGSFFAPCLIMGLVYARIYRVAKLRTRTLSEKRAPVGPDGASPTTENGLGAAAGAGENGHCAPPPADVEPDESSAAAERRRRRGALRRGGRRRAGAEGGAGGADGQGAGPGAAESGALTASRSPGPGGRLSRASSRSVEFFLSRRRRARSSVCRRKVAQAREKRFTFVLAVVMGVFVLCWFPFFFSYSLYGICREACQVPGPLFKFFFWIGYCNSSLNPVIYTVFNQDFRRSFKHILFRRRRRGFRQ
From the text: as §1

M5 = target: T4, M5 (Homo sapiens, UniProt P08912); test: PDSP radioligand binding, muscarinic receptor M5
T4 sequence (P08912 1-532): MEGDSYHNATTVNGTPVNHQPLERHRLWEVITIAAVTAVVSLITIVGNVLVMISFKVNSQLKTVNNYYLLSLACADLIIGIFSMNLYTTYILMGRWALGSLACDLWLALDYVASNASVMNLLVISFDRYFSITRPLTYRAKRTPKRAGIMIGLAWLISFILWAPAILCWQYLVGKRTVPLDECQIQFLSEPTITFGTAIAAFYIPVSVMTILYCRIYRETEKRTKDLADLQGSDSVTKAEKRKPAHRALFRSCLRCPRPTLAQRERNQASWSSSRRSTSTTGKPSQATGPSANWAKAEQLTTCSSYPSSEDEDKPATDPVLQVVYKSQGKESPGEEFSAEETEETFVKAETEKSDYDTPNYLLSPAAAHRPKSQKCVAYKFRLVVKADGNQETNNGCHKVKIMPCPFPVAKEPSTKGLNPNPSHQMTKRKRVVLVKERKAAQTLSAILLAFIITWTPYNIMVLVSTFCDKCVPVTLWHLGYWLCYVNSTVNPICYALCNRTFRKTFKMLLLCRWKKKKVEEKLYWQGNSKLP
From the text: as §1

BZP Rat Brain Site = test: PDSP radioligand binding, benzodiazepine site on GABA-A; settings: Table S1; unit inferred
From the text: as §1

PBR = PBR (Homo sapiens, UniProt P30536); test: PDSP radioligand binding, peripheral benzodiazepine receptor
From the text: as §1

A4B4 = A4B4 (Rattus norvegicus, UniProt P09483+P12392); test: PDSP radioligand binding, nicotinic receptor α4 ß4
From the text: as §1

[2] = Table 2, read-out: NMDA (Ki) (converted)

PBR, sequence (P30536 whole entry, species assumed): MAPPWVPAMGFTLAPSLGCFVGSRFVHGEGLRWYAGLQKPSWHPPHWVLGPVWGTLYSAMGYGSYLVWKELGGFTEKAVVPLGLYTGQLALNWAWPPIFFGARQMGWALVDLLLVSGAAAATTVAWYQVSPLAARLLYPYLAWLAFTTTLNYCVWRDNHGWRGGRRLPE
5-HT2B, sequence (P41595 whole entry, species assumed): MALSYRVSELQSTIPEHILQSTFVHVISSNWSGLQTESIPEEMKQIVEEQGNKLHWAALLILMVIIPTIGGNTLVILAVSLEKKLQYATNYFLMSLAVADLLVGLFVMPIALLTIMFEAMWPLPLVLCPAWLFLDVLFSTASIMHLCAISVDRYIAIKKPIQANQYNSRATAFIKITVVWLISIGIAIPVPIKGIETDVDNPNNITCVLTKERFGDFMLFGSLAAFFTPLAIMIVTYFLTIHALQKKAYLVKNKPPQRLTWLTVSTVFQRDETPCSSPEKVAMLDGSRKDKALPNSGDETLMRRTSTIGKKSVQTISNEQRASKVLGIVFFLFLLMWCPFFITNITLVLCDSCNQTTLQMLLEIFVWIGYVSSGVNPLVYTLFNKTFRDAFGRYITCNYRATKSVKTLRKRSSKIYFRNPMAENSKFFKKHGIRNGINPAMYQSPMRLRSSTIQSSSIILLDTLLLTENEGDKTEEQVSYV
M3, sequence (P20309 whole entry): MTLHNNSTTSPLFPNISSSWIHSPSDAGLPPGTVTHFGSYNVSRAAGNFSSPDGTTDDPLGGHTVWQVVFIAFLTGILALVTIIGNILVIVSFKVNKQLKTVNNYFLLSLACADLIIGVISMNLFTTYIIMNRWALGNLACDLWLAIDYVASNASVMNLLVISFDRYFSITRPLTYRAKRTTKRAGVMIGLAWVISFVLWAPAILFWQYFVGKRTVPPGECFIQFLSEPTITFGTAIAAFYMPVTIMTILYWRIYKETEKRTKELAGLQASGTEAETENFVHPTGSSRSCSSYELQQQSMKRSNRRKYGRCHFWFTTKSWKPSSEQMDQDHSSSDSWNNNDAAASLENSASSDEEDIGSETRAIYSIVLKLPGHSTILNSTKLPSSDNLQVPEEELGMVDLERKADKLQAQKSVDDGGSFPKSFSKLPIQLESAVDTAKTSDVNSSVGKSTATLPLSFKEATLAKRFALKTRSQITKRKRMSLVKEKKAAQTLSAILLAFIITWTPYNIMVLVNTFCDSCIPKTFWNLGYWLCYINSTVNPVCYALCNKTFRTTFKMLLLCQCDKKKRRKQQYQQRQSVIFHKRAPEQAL
D2, sequence (P14416 whole entry): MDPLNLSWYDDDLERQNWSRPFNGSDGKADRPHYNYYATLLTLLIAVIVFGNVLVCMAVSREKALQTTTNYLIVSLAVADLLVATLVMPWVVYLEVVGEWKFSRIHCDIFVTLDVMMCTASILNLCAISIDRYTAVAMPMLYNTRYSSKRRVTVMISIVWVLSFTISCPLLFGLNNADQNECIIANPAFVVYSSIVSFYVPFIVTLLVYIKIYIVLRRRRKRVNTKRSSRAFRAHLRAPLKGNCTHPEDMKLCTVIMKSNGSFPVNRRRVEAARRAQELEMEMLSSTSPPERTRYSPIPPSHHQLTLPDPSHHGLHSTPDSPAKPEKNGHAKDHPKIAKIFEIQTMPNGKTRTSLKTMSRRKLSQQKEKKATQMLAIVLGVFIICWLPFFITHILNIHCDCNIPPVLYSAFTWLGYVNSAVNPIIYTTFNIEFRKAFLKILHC
A4B2, sequence (P09483 31-630): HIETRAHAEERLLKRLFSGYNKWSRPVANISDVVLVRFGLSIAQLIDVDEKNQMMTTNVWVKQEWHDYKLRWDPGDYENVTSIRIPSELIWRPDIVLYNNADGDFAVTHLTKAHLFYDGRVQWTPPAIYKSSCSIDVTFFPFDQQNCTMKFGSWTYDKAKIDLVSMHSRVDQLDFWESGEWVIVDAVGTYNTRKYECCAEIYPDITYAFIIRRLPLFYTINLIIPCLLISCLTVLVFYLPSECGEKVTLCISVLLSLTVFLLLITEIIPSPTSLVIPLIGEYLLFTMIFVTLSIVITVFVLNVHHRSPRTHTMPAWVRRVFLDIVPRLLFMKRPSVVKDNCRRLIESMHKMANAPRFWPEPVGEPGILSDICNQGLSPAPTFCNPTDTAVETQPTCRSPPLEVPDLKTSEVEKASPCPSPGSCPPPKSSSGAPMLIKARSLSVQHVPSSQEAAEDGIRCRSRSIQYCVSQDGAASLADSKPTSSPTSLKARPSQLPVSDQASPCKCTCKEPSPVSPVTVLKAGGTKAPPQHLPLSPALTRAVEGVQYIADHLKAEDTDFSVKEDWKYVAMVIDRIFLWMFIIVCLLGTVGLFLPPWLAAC
A4B2, sequence (P12390 25-500): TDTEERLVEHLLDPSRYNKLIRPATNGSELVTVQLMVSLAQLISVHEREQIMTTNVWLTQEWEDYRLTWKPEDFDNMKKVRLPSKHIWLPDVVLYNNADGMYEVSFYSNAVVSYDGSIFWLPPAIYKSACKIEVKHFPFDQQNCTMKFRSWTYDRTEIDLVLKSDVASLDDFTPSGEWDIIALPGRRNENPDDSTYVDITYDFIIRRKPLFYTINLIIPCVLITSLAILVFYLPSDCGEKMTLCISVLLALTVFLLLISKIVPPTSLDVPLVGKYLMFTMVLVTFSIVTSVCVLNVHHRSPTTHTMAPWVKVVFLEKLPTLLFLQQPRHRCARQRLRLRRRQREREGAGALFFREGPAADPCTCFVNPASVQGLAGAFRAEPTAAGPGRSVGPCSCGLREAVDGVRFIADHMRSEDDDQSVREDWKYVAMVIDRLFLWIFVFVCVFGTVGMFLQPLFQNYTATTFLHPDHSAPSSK
A4B4, sequence (P09483 31-630): as the sequence (P09483 31-630) above
A4B4, sequence (P12392 21-495): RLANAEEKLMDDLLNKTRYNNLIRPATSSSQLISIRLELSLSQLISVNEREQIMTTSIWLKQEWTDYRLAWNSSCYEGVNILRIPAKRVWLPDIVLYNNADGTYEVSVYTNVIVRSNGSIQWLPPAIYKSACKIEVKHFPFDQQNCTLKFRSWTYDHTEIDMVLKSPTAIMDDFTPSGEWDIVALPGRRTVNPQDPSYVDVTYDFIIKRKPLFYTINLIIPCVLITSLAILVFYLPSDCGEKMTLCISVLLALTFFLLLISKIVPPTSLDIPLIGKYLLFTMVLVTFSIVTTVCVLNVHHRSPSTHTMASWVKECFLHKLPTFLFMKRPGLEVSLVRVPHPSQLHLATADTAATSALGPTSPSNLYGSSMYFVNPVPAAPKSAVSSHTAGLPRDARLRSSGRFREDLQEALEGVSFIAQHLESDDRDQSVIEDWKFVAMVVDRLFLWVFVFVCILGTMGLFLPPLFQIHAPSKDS
MOR, sequence (P35372 whole entry): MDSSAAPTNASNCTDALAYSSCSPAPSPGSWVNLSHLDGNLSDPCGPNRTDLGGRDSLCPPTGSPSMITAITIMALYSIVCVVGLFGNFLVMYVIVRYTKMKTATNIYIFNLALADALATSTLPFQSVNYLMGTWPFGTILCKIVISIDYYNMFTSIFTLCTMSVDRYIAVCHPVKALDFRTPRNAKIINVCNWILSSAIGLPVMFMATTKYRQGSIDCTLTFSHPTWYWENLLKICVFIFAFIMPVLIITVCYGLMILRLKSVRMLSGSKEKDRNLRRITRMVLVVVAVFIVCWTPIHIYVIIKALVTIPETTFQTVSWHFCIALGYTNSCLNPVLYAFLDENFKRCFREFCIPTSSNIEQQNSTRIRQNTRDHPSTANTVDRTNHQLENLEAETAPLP
A3B2, sequence (P04757 26-499): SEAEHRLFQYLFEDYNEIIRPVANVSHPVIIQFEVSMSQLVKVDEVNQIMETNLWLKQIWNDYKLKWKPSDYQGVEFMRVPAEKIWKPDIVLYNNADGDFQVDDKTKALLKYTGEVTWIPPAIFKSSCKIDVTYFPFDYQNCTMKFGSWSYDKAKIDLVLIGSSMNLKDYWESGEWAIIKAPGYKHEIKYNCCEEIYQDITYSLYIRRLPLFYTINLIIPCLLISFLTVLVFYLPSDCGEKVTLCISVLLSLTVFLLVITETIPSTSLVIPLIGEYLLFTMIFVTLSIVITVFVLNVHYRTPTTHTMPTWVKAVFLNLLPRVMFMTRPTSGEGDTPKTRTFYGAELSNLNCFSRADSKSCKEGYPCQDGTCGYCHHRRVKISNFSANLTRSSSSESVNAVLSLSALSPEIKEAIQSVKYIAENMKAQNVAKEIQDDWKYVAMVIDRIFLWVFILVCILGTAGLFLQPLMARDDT
A3B2, sequence (P12390 25-500): as the sequence (P12390 25-500) above
D1, sequence (P21728 whole entry): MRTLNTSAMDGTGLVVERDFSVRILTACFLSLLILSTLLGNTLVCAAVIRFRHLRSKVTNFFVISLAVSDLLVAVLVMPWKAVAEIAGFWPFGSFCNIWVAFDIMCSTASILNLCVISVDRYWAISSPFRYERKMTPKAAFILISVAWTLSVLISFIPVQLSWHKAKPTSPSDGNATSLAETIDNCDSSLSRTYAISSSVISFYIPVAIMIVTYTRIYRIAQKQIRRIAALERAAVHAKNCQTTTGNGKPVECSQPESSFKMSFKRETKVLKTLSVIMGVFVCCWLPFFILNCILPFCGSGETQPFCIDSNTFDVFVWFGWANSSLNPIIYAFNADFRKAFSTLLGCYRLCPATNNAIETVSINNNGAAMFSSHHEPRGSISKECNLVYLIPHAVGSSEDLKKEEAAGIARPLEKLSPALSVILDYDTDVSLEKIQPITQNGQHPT

CCNC1(c2cccc(OC)c2)CCCCC1=O (racemic) [Methoxetamine, (RS)-2-(ethylamino)-2-(3-methoxyphenyl)cyclohexanone] showed a Ki (KOR) of over 10 µM, a Ki (5-HT1A) of over 10 µM and a Ki (D1) of over 10 µM. It also gave a Ki (GABAB) of over 10 µM, a Ki (A4B2) of over 10 µM and a Ki (5-HT2B) of over 10 µM. For the same compound, the Ki (5-HT2A) was over 10 µM, the Ki (Alpha1B) was over 10 µM and the Ki (M3) was over 10 µM. The Ki (D2) was over 10 µM, the Ki (MOR) was over 10 µM and the Ki (A3B2) was over 10 µM. For the same compound, the Ki ([1]; Figure 3, N = 3 separate determinations, read-out: Ki in NMDA receptor assay) was 0.337 µM, the Ki ([1]; Table S1, unit inferred, read-out: Ki NMDA) was 0.338 µM and the Ki (Alpha2C) was over 10 µM. It also gave a Ki (M5) of over 10 µM, a Ki (BZP Rat Brain Site) of over 10 µM and a Ki (PBR) of over 10 µM. The Ki (A4B4) was over 10 µM.
Compound COc1cccc(C2(N3CCCCC3)CCCCC2)c1 [3-MeO-PCP, 1-[1-(3-methoxyphenyl)cyclohexyl]piperidine] has a Ki (KOR) of over 10 µM, a Ki (5-HT1A) of over 10 µM and a Ki (D1) of over 10 µM. For the same compound, the Ki (GABAB) was over 10 µM, the Ki (A4B2) was over 10 µM and the Ki (5-HT2B) was over 10 µM. For the same compound, the Ki (5-HT2A) was over 10 µM, the Ki (Alpha1B) was over 10 µM and the Ki (M3) was over 10 µM. For the same compound, the Ki (D2) was over 10 µM, the Ki (MOR) was over 10 µM and the Ki (A3B2) was over 10 µM. The “NMDA pKi +/− SD” value ([1]; Table 2) was 7.69±0.08, the Ki [1, 2] was 0.02 µM and the Ki (Alpha2C) was over 10 µM. The Ki (M5) was over 10 µM, the Ki (BZP Rat Brain Site) was over 10 µM and the Ki (PBR) was over 10 µM. The Ki (A4B4) was over 10 µM.
Compound COc1ccc(C2(N3CCCCC3)CCCCC2)cc1 [4-MeO-PCP, 1-[1-(4-methoxyphenyl)cyclohexyl]piperidine] has a Ki (KOR) of over 10 µM, a Ki (5-HT1A) of over 10 µM and a Ki (D1) of over 10 µM. The Ki (GABAB) was over 10 µM, the Ki (A4B2) was over 10 µM and the Ki (5-HT2B) was over 10 µM. For the same compound, the Ki (5-HT2A) was over 10 µM, the Ki (Alpha1B) was over 10 µM and the Ki (M3) was over 10 µM. For the same compound, the Ki (D2) was over 10 µM, the Ki (MOR) was over 10 µM and the Ki (A3B2) was over 10 µM. For the same compound, the “NMDA pKi +/− SD” value ([1]; Table 2) was 6.39±0.06, the Ki [1, 2] was 0.404 µM and the Ki (Alpha2C) was over 10 µM. For the same compound, the Ki (M5) was over 10 µM, the Ki (BZP Rat Brain Site) was over 10 µM and the Ki (PBR) was over 10 µM. For the same compound, the Ki (A4B4) was over 10 µM.
